According to patent US12576169B2, “Silicon-fluoride acceptor substituted radiopharmaceuticals and precursors thereof” (Technische Universität München, priority 2019, dated 2026):
Like-named read-outs stand apart in the source and are kept apart here. *1 amine or outer side, *2 acyl side, *3 side chain or, on linkers, in order; H or OH if unused. Where a SMILES comes first, the peptide text is derived from it. Side-chain parts run from the residue outwards. [ ]: non-standard residue; d: D form. The star is where a group is joined. X1 = O=C(O)CC[C@H](NC(=O)N[C@@H](CCC(=O)N[C@H](CCCN*)C(=O)O)C(=O)O)C(=O)O; Benzoyl(4-SiFtBu2) = CC(C)(C)[Si](F)(c1ccc(C(=O)*)cc1)C(C)(C)C; γGlu = O=C(O)[C@H](CCC(=O)[*:2])N[*:1]; dCit = NC(=O)NCCC[C@@H](N)C(=O)O; Suc = O=C(CCC(=O)[*:2])[*:1]; dDap = NC[C@@H](N)C(=O)O; CO = O=C([*:1])[*:2]

Columns and labels:
[1] = biological target: PSMA (Homo sapiens, UniProt Q04609); assay: IC50 determination: PSMA binding affinity, competition with [125I]XII on LNCaP cells
Description: LNCaP cells were grown in Dulbecco's Modified Eagle Medium/Nutrient Mixture F-12 (DMEM/F-12, add. 10% fetal calf serum (FCS), v/v) and maintained at 37° C. in a humidified 5% CO2 atmosphere. […] After removal of the culture medium, LNCaP cells were treated with HBSS (add. 1% BSA, v/v, 4° C., 500 μL) and subsequently left 15 min on ice for equilibration in HBSS (add. 1% BSA, v/v, 4° C., 200 μL). […] For the control series, HBSS (add. 1% BSA, v/v, 25 μL) was used instead of the SiFA-PSMA ligand solution. Each concentration and the control were prepared in triplicate. After 1 h incubation on ice, the assay medium was removed and cells were washed with HBSS (200 μL, 4° C.). […] NaOH (200 μL) for at least 10 min and the resulting cell lysate was removed. The wells were treated again with 1 M aq. […] The experiment was repeated for at least three times and the IC50 value calculated using the GraphPad PRISM 8.0.2 software (Graphpad Software Inc., La Jolla, United States).

[2] = n-Octanol-PBS partition coefficient (logD7.4); type: physicochemical; conditions: 18F-labeled ligand; n-octanol/PBS pH=7.4; mean ± SD (n = 5)
Description: Approx. 0.5 MBq of the ^18F-labeled SiFA-PSMA ligand were added into a test tube containing n-octanol (500 μL) and PBS (500 μL, pH=7.4). After vigorously shaking the two-phase mixture for 3 min at rt, the test tube was centrifuged at 9.000 rpm for 5 min to achieve quantitative phase separation. Finally, 150 μL of each layer were pipetted off and measured for activity using a gamma counter. After repeating the experiment for at least five times, the n-octanol-PBS partition coefficient log D7.4 was calculated according to following formula.

[3] = biological target: T1, human serum albumin (HSA) (Homo sapiens, UniProt P02768); assay: Binding to HSA on a Chiralpak HSA column; type: in vitro ADME; conditions: calibration with nine reference substances
T1 construct: purchased H13H-2433
Description: For the determination of human serum albumin (HSA) binding, a Chiralpak HSA column (50×3 mm, 5 μm, H13H-2433) was used at a constant flow rate of 0.5 mL/min. The mobile phase composed of a 50 mM NH4OAc solution in water with pH=7 (solvent C) and isopropanol (solvent D) was freshly prepared for each experiment and used only once. The reference substances (Table 1) as well as the analyzed SiFA-PSMA ligands were dissolved in a mixture of solvent C/solvent D (1:1, v/v, 0.5 mg/mL) and eluted from the HSA column (0-3 min: 100% C, 3-20 min: 20% D in C, λ=254 nm). The column was kept at rt and each run was stopped after detection of the signal to reduce the acquisition time. The nine reference substances display an HSA binding range of 13% to 99% and were injected consecutively in order to establish a sigmoidal calibration curve with the software OriginPro 2018b (FIG. 1).

[4] = system: LNCaP cells; assay: Internalization of 18F-labeled ligands into LNCaP cells; type: cell-based, human; conditions: internalized activity at 1 h in % of reference [125I]XII; c = 0.5 nM; LNCaP cells (125.000 cells/well); 37° C., DMEM/F-12 add. 5% BSA; corrected for non-specific binding (10 μm PMPA); mean ± SD (n = 3)
Description: LNCaP cells were grown in DMEM/F-12 (add. 10% FCS, v/v) and maintained at 37° C. in a humidified 5% CO2 atmosphere. […] Subsequent to the removal of the culture medium, cells were washed with DMEM-F12 (add. 5% BSA, v/v, 500 μL) and left to equilibrate in DMEM-F12 (add. 5% BSA, v/v, 200 μL) at 37° C. for 15 min. Each well was treated with either DMEM-F12 (add. 5% BSA, v/v, 25 μL) or a 2-(phosphonomethyl)-pentandioic acid (PMPA) solution (100 μM in PBS, 25 μL) for blockade. Afterwards, the ^18F-labeled SiFA-PSMA ligand (5 nM in PBS, 25 μL) was added and the cells were incubated for 1 h at 37° C. The experiment was terminated by placing the 24-well plate on ice for 3 min and removal of the assay medium. Each well was rinsed with HBSS (4° C., 250 μL) and the fractions were combined with the previous assay medium, representing the amount of unbound radioligand. For removal of surface bound activity, LNCaP cells were incubated with PMPA solution (10 μM in PBS, 4° C., 250 μL) for 5 min and rinsed again with PBS (250 μL, 4° C.). The internalized activity was determined by incubation of LNCaP cells with 1 M aq. NaOH (250 μL) for at least 10 min and combination with the fraction of a subsequent wash step with 1 M aq. NaOH (200 μL). Each experiment (control and blockade) was performed in triplicate. […] All internalization studies were accompanied by reference studies using the reference compound XII (2 nM in HBSS add. 1% BSA, v/v), which were performed analogously. Data were corrected for non-specific internalization and normalized to the specific-internalization observed for the radioiodinated reference compound.

[5] = LNCaP cells (150.000 cells/well), reference [125I]XII c = 0.2 nM, 1 h, 4° C., HBSS add. 1% BSA, mean ± SD (n = 3)

T1 sequence (P02768 25-609): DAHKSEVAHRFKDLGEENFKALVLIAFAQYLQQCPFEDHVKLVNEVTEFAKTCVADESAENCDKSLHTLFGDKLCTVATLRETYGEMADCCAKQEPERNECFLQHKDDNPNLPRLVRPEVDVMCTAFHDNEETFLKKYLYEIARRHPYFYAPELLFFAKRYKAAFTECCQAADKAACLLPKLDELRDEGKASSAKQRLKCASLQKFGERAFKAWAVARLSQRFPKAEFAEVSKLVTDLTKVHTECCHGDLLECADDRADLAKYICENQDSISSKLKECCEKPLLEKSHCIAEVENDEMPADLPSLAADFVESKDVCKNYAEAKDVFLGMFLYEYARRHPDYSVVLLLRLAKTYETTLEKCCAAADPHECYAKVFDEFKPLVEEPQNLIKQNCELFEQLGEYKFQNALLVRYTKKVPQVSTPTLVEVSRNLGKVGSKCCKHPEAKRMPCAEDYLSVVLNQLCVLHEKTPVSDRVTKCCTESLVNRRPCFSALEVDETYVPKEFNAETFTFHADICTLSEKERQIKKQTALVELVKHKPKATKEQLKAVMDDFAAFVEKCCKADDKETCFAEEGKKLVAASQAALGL
Sequence of PSMA (Q04609 whole entry): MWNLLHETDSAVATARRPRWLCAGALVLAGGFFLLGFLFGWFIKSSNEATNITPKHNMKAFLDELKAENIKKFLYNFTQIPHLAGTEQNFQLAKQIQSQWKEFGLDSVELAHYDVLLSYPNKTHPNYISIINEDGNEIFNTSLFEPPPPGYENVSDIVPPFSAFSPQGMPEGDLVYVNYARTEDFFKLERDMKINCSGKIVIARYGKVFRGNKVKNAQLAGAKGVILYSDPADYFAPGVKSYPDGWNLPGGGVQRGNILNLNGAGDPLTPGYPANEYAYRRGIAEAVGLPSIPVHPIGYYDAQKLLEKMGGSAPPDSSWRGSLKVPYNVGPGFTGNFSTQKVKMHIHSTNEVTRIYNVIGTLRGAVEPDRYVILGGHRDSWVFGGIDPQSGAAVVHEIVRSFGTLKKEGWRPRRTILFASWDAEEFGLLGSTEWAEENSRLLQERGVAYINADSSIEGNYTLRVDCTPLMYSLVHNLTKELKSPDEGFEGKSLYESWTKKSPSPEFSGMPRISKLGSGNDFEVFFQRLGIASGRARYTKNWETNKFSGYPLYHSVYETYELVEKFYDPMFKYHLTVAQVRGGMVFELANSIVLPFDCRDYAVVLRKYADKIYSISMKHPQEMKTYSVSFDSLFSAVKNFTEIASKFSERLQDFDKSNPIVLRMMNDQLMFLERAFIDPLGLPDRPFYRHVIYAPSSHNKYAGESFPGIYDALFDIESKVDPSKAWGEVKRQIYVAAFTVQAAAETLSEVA

SMILES	IC50 [1, 5]	logD7.4 [2]	Binding to HSA [3]	Internalization [4]	IC50 [1]
CC(C)(C)[Si](F)(c1ccc(C(=O)NC[C@@H](NC(=O)CCCCCNC(=O)CC[C@H](NC(=O)N[C@@H](CCC(=O)O)C(=O)O)C(=O)O)C(=O)N[C@H](CCCCNC(=O)CCC(=O)NCCC[C@@H](NC(=O)CC[C@H](NC(=O)N[C@@H](CCC(=O)O)C(=O)O)C(=O)O)C(=O)O)C(=O)O)cc1)C(C)(C)C [SiFA-PSMA ligand 02 c]	5.9 ± 1 nM	−3.27 ± 0.02	≥99.0%	156.95 ± 13.21%	
CC(C)(C)[Si](F)(c1ccc(C(=O)N[C@H](CC(=O)N[C@H](CCCCNC(=O)CCC(=O)NCCC[C@@H](NC(=O)CC[C@H](NC(=O)N[C@@H](CCC(=O)O)C(=O)O)C(=O)O)C(=O)O)C(=O)O)C(=O)N[C@H](CCCCNC(=O)CCC(=O)NCCC[C@@H](NC(=O)CC[C@H](NC(=O)N[C@@H](CCC(=O)O)C(=O)O)C(=O)O)C(=O)O)C(=O)O)cc1)C(C)(C)C [SiFA-PSMA ligand 06]		−3.77 ± 0.04	≥98.9%	270.03 ± 16.10%	7.4 ± 1.9 nM
CC(C)(C)[Si](F)(c1ccc(C(=O)NC[C@@H](NC(=O)[C@@H](CCCNC(N)=O)NC(=O)[C@@H](CCC(=O)O)NC(=O)[C@H](N)CCC(=O)O)C(=O)N[C@H](CCCCNC(=O)CCC(=O)NCCC[C@@H](NC(=O)CC[C@H](NC(=O)N[C@@H](CCC(=O)O)C(=O)O)C(=O)O)C(=O)O)C(=O)O)cc1)C(C)(C)C [SiFA-PSMA ligand 03 c] (H-[dE][dE][dCit][dDap](Benzoyl(4-SiFtBu2))[dK]([Suc-X1])-OH)	11.7 ± 1.5 nM	−3.31 ± 0.02	98.6%	87.55 ± 2.28%	
CC(C)(C)[Si](F)(c1ccc(C(=O)NC[C@@H](NC(=O)[C@@H](CN)NC(=O)[C@@H](CCC(=O)O)NC(=O)[C@H](N)CCC(=O)O)C(=O)N[C@H](CCCCNC(=O)CCC(=O)NCCC[C@@H](NC(=O)CC[C@H](NC(=O)N[C@@H](CCC(=O)O)C(=O)O)C(=O)O)C(=O)O)C(=O)O)cc1)C(C)(C)C [SiFA-PSMA ligand 03 d] (H-[dE][dE][dDap][dDap](Benzoyl(4-SiFtBu2))[dK]([Suc-X1])-OH)	9.1 ± 0.8 nM	−3.42 ± 0.05	97.2%	171.82 ± 9.57%	
CC(C)(C)[Si](F)(c1ccc(C(=O)NC[C@@H](NC(=O)CCCCCNC(=O)CC[C@@H](NC(=O)N[C@H](CCC(=O)O)C(=O)O)C(=O)O)C(=O)N[C@H](CCCCNC(=O)CCC(=O)NCCC[C@@H](NC(=O)CC[C@H](NC(=O)N[C@@H](CCC(=O)O)C(=O)O)C(=O)O)C(=O)O)C(=O)O)cc1)C(C)(C)C [SiFA-PSMA ligand 02 d]		−3.24 ± 0.03	≥98.9%	119.56 ± 5.84%	9.9 ± 0.8 nM
CC(C)(C)[Si](F)(c1ccc(C(=O)NC[C@@H](NC(=O)[C@@H](CCCNC(N)=O)NC(=O)CC[C@H](NC(=O)N[C@@H](CCC(=O)O)C(=O)O)C(=O)O)C(=O)N[C@H](CCCCNC(=O)CCC(=O)NCCC[C@@H](NC(=O)CC[C@H](NC(=O)N[C@@H](CCC(=O)O)C(=O)O)C(=O)O)C(=O)O)C(=O)O)cc1)C(C)(C)C [SiFA-PSMA ligand 01 d]	13 ± 1.2 nM	−3.28 ± 0.03	≥98.9%	95.68 ± 9.86%	
CC(C)(C)[Si](F)(c1ccc(C(=O)NC[C@@H](NC(=O)CNC(=O)CNC(=O)CNC(=O)CC[C@H](NC(=O)N[C@@H](CCC(=O)O)C(=O)O)C(=O)O)C(=O)N[C@H](CCCCNC(=O)CCC(=O)NCCC[C@@H](NC(=O)CC[C@H](NC(=O)N[C@@H](CCC(=O)O)C(=O)O)C(=O)O)C(=O)O)C(=O)O)cc1)C(C)(C)C [SiFA-PSMA ligand 02 e] ({Glu-CO-γGlu}-GGG[dDap](Benzoyl(4-SiFtBu2))[dK]([Suc-X1])-OH)		−3.50 ± 0.04	≥98.9%	190.26 ± 16.87%	9 ± 2.2 nM
CC(C)(C)[Si](F)(c1ccc(C(=O)NC[C@@H](NC(=O)[C@@H](CCCN)NC(=O)CC[C@H](NC(=O)N[C@@H](CCC(=O)O)C(=O)O)C(=O)O)C(=O)N[C@H](CCCCNC(=O)CCC(=O)NCCC[C@@H](NC(=O)CC[C@H](NC(=O)N[C@@H](CCC(=O)O)C(=O)O)C(=O)O)C(=O)O)C(=O)O)cc1)C(C)(C)C [SiFA-PSMA ligand 01 f]	8.3 ± 1.5 nM	−3.65 ± 0.09	98.9%	123.13 ± 2.14%	
CC(C)(C)[Si](F)(c1ccc(C(=O)NC[C@@H](NC(=O)[C@@H](CCCCN)NC(=O)[C@@H](CCC(=O)O)NC(=O)[C@H](N)CCC(=O)O)C(=O)N[C@H](CCCCNC(=O)CCC(=O)NCCC[C@@H](NC(=O)CC[C@H](NC(=O)N[C@@H](CCC(=O)O)C(=O)O)C(=O)O)C(=O)O)C(=O)O)cc1)C(C)(C)C [SiFA-PSMA ligand 03 f] (H-[dE][dE][dK][dDap](Benzoyl(4-SiFtBu2))[dK]([Suc-X1])-OH)	6.9 ± 1 nM	−3.43 ± 0.02	96.9%	94.24 ± 6.01%	
CC(C)(C)[Si](F)(c1ccc(C(=O)NC[C@@H](NC(=O)[C@H](N)CNC(=O)CC[C@H](NC(=O)N[C@@H](CCC(=O)O)C(=O)O)C(=O)O)C(=O)N[C@H](CCCCNC(=O)CCC(=O)NCCC[C@@H](NC(=O)CC[C@H](NC(=O)N[C@@H](CCC(=O)O)C(=O)O)C(=O)O)C(=O)O)C(=O)O)cc1)C(C)(C)C [SiFA-PSMA ligand 02 a]		−3.65 ± 0.09	≥98.9%	231.60 ± 14.21%	10.2 ± 1.2 nM
CC(C)(C)[Si](F)(c1ccc(C(=O)NC[C@@H](NC(=O)[C@@H](CCCNC(N)=O)NC(=O)[C@@H](CCCNC(N)=O)NC(=O)[C@H](N)CCCNC(N)=O)C(=O)N[C@H](CCCCNC(=O)CCC(=O)NCCC[C@@H](NC(=O)CC[C@H](NC(=O)N[C@@H](CCC(=O)O)C(=O)O)C(=O)O)C(=O)O)C(=O)O)cc1)C(C)(C)C [SiFA-PSMA ligand 05] (H-[dCit][dCit][dCit][dDap](Benzoyl(4-SiFtBu2))[dK]([Suc-X1])-OH)		−3.17 ± 0.02	95.7%	90.13 ± 6.13%	16.2 ± 2 nM
CC(C)(C)[Si](F)(c1ccc(C(=O)NC[C@@H](NC(=O)[C@H](CCCCN)NC(=O)CC[C@H](NC(=O)N[C@@H](CCC(=O)O)C(=O)O)C(=O)O)C(=O)N[C@H](CCCCNC(=O)CCC(=O)NCCC[C@@H](NC(=O)CC[C@H](NC(=O)N[C@@H](CCC(=O)O)C(=O)O)C(=O)O)C(=O)O)C(=O)O)cc1)C(C)(C)C [SiFA-PSMA ligand 01 h]	8.7 ± 0.6 nM	−3.71 ± 0.16	98.7%	142.95 ± 7.49%	
CC(C)(C)[Si](F)(c1ccc(C(=O)N[C@H](CC(=O)N[C@H](CC(=O)NCCC[C@@H](NC(=O)c2cc(C(=O)O)cc(C(=O)O)c2)C(=O)NCCCC[C@@H](NC(=O)CC[C@H](NC(=O)N[C@@H](CCC(=O)O)C(=O)O)C(=O)O)C(=O)O)C(=O)O)C(=O)N[C@H](CC(=O)NCCC[C@@H](NC(=O)c2cc(C(=O)O)cc(C(=O)O)c2)C(=O)NCCCC[C@@H](NC(=O)CC[C@H](NC(=O)N[C@@H](CCC(=O)O)C(=O)O)C(=O)O)C(=O)O)C(=O)O)cc1)C(C)(C)C [SiFA-PSMA ligand 07]		−3.45 ± 0.01		311.75 ± 7.30%	5.5 ± 0.6 nM
